Source: doi:10.1101/2020.03.02.973636v3 (biorxiv, 2020)

How the values were obtained:
[1] = target: T1, HDAC2 (Homo sapiens, UniProt Q92769); test: biolayer interferometry, […] global fit; assay type: binding
[2] = target: T2, HDAC8 (Homo sapiens, UniProt Q9BY41); test: RapidFire mass spectrometry deacetylase assay; assay type: biochemical
T2 sequence (Q9BY41 1-377): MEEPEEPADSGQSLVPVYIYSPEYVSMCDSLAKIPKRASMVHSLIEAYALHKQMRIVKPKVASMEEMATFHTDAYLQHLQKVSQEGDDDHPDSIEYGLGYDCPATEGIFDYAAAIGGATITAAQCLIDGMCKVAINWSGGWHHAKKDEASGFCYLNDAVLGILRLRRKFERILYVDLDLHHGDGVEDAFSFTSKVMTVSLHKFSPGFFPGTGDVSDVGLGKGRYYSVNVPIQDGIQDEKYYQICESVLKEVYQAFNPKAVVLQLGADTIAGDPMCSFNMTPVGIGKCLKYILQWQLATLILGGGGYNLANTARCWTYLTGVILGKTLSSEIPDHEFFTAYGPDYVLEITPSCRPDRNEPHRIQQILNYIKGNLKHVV

[3] = target: T2, HDAC8; test: biolayer interferometry, […] global fit; assay type: binding
[4] = target: T3, HDAC1 (Homo sapiens, UniProt Q13547); test: biolayer interferometry, […] global fit; assay type: binding
T3 sequence (Q13547 whole entry): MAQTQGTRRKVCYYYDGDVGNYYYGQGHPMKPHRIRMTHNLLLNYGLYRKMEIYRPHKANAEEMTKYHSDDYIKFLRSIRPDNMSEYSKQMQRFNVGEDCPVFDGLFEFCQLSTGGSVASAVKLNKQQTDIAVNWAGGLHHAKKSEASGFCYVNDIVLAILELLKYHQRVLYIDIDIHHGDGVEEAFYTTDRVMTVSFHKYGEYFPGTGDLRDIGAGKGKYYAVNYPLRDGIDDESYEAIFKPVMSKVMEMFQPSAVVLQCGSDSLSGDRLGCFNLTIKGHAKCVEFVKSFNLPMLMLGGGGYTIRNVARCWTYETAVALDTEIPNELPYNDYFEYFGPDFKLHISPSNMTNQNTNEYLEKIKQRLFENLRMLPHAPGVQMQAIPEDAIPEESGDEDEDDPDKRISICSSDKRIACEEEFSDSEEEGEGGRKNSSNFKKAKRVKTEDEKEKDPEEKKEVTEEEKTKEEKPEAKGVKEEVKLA

[5] = target: T3, HDAC1; test: biochemical; conditions: read-out: ka (1/Ms)
[6] = target: T1, HDAC2; test: biochemical; conditions: read-out: ka (1/Ms)
[7] = target: T2, HDAC8; test: biochemical; conditions: read-out: ka (1/Ms)
[8] = target: T3, HDAC1; test: biochemical; conditions: read-out: kdis (1/s)
[9] = target: T2, HDAC8; test: biochemical; conditions: read-out: kdis (1/s)
[10] = target: T1, HDAC2; test: biochemical; conditions: read-out: kdis (1/s)
[11] = target: T3, HDAC1; test: biochemical

T1 sequence (Q92769 whole entry): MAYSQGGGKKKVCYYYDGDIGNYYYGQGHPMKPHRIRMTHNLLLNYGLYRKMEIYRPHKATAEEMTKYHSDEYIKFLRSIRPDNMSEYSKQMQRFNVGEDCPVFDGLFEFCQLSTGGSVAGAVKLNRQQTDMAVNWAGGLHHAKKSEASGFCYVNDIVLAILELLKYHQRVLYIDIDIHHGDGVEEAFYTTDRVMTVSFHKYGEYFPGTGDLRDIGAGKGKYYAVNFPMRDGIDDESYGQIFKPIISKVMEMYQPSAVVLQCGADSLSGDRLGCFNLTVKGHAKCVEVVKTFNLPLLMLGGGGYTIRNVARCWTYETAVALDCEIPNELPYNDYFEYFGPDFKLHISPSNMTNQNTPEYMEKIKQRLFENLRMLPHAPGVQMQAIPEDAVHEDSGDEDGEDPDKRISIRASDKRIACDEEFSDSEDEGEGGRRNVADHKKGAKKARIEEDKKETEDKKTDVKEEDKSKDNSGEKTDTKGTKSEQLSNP

- Kd [1]: 0.1428 ± 0.001 µM
- EC50 [2]: 0.27 µM
- Kd [3]: 0.2579 ± 0.0017 µM
- Kd [4]: 0.0949 ± 0.0008 µM
- kon [5]: 15500 M⁻¹ s⁻¹
- kon [6]: 8740 M⁻¹ s⁻¹
- kon [7]: 5050 M⁻¹ s⁻¹
- koff [8]: 0.00134 s⁻¹
- koff [9]: 0.0013 s⁻¹
- koff [10]: 0.00125 s⁻¹
- EC50 [11]: 0.16 µM
Compound: O=C(c1cc(O)c(O)c(O)c1)c1ccc(O)c(O)c1O [Exifone, 2,3,3’,4,4’,5’-hexahydroxybenzophenone]
